According to the CheMixHub ionic liquid set:

Experiment: xn = mol fraction of the nth substance listed
Conditions: 101 kPa

CCCCCCCCCCCC[N+](C)(C)Cc1ccccc1.[Cl-] + NCC(=O)NCC(=O)O + O
electrical conductivity [S/m]
Conditions | 293.15 K | 298.15 K | 303.15 K | 308.15 K | 313.15 K
x2 = 0.0008945, x1 = 0.0002797 | 0.0793 | 0.0896 | 0.0999 | 0.111 | 0.123
x2 = 0.0008945, x1 = 0.0003 | 0.0824 | 0.0938 | 0.105 | 0.117 | 0.129
x2 = 0.0008945, x1 = 0.0003225 | 0.086 | 0.0984 | 0.109 | 0.123 | 0.135
x2 = 0.0008945, x1 = 0.0003431 | 0.0893 | 0.102 | 0.115 | 0.128 | 0.14
x2 = 0.0008946, x1 = 0.0001787 | 0.0623 | 0.069 | 0.0771 | 0.086 | 0.0944
x2 = 0.0008946, x1 = 0.000206 | 0.0676 | 0.0752 | 0.0839 | 0.093 | 0.103
x2 = 0.0008946, x1 = 0.0002337 | 0.0721 | 0.081 | 0.09 | 0.0999 | 0.111
x2 = 0.0008946, x1 = 0.0002576 | 0.0759 | 0.0855 | 0.0949 | 0.106 | 0.118
x2 = 0.0008947, x1 = 6.107e-05 | 0.0231 | 0.0264 | 0.0294 | 0.0327 | 0.036
x2 = 0.0008947, x1 = 8.317e-05 | 0.0312 | 0.0352 | 0.0392 | 0.0433 | 0.0476
x2 = 0.0008947, x1 = 0.0001051 | 0.0388 | 0.0437 | 0.0485 | 0.0537 | 0.059
x2 = 0.0008947, x1 = 0.0001274 | 0.0473 | 0.0523 | 0.0589 | 0.0647 | 0.0718
x2 = 0.0008947, x1 = 0.000152 | 0.0562 | 0.0624 | 0.0692 | 0.0771 | 0.0851
x2 = 0.001798, x1 = 0.0001447 | 0.056 | 0.0627 | 0.0696 | 0.0768 | 0.0846
x2 = 0.001798, x1 = 0.0001707 | 0.063 | 0.0704 | 0.0781 | 0.0865 | 0.0956
x2 = 0.001798, x1 = 0.0001977 | 0.0685 | 0.0766 | 0.0852 | 0.0946 | 0.105
x2 = 0.001798, x1 = 0.0002221 | 0.0729 | 0.0816 | 0.091 | 0.101 | 0.113
x2 = 0.001798, x1 = 0.0002443 | 0.0767 | 0.0861 | 0.0963 | 0.107 | 0.12
x2 = 0.001798, x1 = 0.0002649 | 0.0802 | 0.0902 | 0.101 | 0.112 | 0.126
x2 = 0.001798, x1 = 0.000284 | 0.0835 | 0.094 | 0.105 | 0.118 | 0.131
x2 = 0.001798, x1 = 0.0003015 | 0.0864 | 0.0974 | 0.109 | 0.122 | 0.137
x2 = 0.001798, x1 = 0.000321 | 0.0898 | 0.101 | 0.114 | 0.127 | 0.142
x2 = 0.001799, x1 = 5.376e-05 | 0.0229 | 0.0259 | 0.029 | 0.0323 | 0.0357
x2 = 0.001799, x1 = 7.599e-05 | 0.0313 | 0.0352 | 0.0394 | 0.0437 | 0.0482
x2 = 0.001799, x1 = 9.786e-05 | 0.0395 | 0.0443 | 0.0494 | 0.0546 | 0.0601
x2 = 0.001799, x1 = 0.0001201 | 0.0476 | 0.0533 | 0.0593 | 0.0655 | 0.0721
